Experimental data taken from US20060069132A1, “Azolecarboxamide herbicides” (priority 2004, published 2006).
Where two headings read alike, the source gives them in different places.

Experiments:
woolly cupgrass = assay: Test C pre-/postemergence herbicide test; type: in vivo, Eriochloa villosa; settings: Eriochloa villosa, pre-emergence, 312 h, read-out: Plant response rating, Cupgrass, Woolly; for pest or weed control at 62 g/ha: 62 g ai/ha, preemergence, scale 0 to 100; for pest or weed control at 125 g/ha: 125 g ai/ha, scale 0 (no effect) to 100 (complete control); for pest or weed control at 125 g/ha / pest or weed control at 500 g/ha: visual, 12 to 14 days; for pest or weed control at 250 g/ha: 250 g ai/ha, scale 0-100; for pest or weed control at 500 g/ha: 500 g ai/ha, scale 0 to 100 (0 no effect, 100 complete control)
Procedure, shortened: (§1)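 Seeds were planted and sprayed preemergence with test chemicals in a non-phytotoxic solvent mixture containing surfactant; postemergence treatments went onto plants 2 to 18 cm tall (1- to 4-leaf stage). After 12 to 14 days in a greenhouse, injury was rated visually against untreated controls on a 0–100 scale.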

morningglory = assay: Test C pre-/postemergence herbicide test; type: in vivo, Ipomoea coccinea; settings: Ipomoea, pre-emergence, read-out: Plant response rating, Morningglory; for pest or weed control at 62 g/ha: 62 g ai/ha, preemergence, scale 0 to 100; for pest or weed control at 125 g/ha: 125 g ai/ha, scale 0 (no effect) to 100 (complete control); for pest or weed control at 125 g/ha / pest or weed control at 500 g/ha: visual, 12 to 14 days; for pest or weed control at 250 g/ha: 250 g ai/ha, scale 0-100; for pest or weed control at 500 g/ha: 500 g ai/ha, scale 0 to 100 (0 no effect, 100 complete control)
Procedure, shortened: as §1

barnyardgrass [1] = assay: Test C flooded paddy test; type: in vivo, Echinochloa crus-galli; settings: Echinochloa crus-galli; for pest or weed control at 62 g/ha: 62 g ai/ha; for pest or weed control at 62 g/ha / pest or weed control at 125 g/ha / pest or weed control at 500 g/ha: scale 0 to 100 (0 no effect, 100 complete control); for pest or weed control at 62 g/ha / pest or weed control at 125 g/ha / pest or weed control at 250 g/ha: read-out: Barnyardgrass plant response rating; for pest or weed control at 125 g/ha: 125 g ai/ha; for pest or weed control at 250 g/ha: 250 g ai/ha, scale of 0 to 100, 0 is no effect, 100 is complete control; for pest or weed control at 500 g/ha: 500 g ai/ha, visual rating after 12 to 14 days, read-out: Plant response rating, Barnyardgrass
Procedure, shortened: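 Plants were grown to the 1- to 4-leaf stage (2–18 cm) and then treated postemergence, or grown to the 2-leaf stage for the flooded paddy test. They were held in a greenhouse for 12 to 14 days and then scored by eye against controls, where 0 is no effect and 100 is complete control.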

Surinam grass = assay: Test C pre-/postemergence herbicide test; type: in vivo, Urochloa decumbens; settings: Urochloa decumbens, pre-emergence, 312 h, read-out: Plant response rating, Surinam Grass; for pest or weed control at 62 g/ha: 62 g ai/ha, preemergence, scale 0 to 100; for pest or weed control at 250 g/ha: 250 g ai/ha, scale 0-100; for pest or weed control at 500 g/ha: 500 g ai/ha, scale 0 to 100 (0 no effect, 100 complete control), visual, 12 to 14 days
Procedure, shortened: as §1

giant foxtail = assay: Test A pre-/postemergence herbicide test; type: in vivo, Setaria faberi; settings: Setaria faberi, 240 h; for pest or weed control at 500 g/ha: 500 g ai/ha; for pest or weed control at 2000 g/ha: 2000 g ai/ha
Procedure, shortened: (§2)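 Seeds sown in sandy loam received a preemergence directed soil spray of compound in non-phytotoxic solvent with surfactant; postemergence plants (2–10 cm, one- to two-leaf stage) were sprayed to runoff at the same time. After ~10 days in greenhouse, injury was rated visually versus untreated controls (0 = no effect, 100 = complete control).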

johnsongrass = assay: Test C pre-/postemergence herbicide test; type: in vivo, Sorghum halepense; settings: Sorghum halepense, pre-emergence, read-out: Plant response rating, Johnsongrass; for pest or weed control at 62 g/ha: 62 g ai/ha, preemergence, scale 0 to 100; for pest or weed control at 125 g/ha: 125 g ai/ha, scale 0 (no effect) to 100 (complete control); for pest or weed control at 125 g/ha / pest or weed control at 500 g/ha: visual, 12 to 14 days; for pest or weed control at 250 g/ha: 250 g ai/ha, scale 0-100; for pest or weed control at 500 g/ha: 500 g ai/ha, scale 0 to 100 (0 no effect, 100 complete control)
Procedure, shortened: as §1

large crabgrass = assay: Test A pre-/postemergence herbicide test; type: in vivo, Digitaria sanguinalis; settings: Digitaria sanguinalis, 240 h; for pest or weed control at 500 g/ha: 500 g ai/ha; for pest or weed control at 2000 g/ha: 2000 g ai/ha
Procedure, shortened: as §2

bermudagrass = assay: Test C pre-/postemergence herbicide test; type: in vivo, Cynodon dactylon; settings: Cynodon dactylon, pre-emergence, 312 h; for pest or weed control at 62 g/ha: 62 g ai/ha, preemergence; for pest or weed control at 62 g/ha / pest or weed control at 500 g/ha: scale 0 to 100, 0 no effect, 100 complete control; for pest or weed control at 62 g/ha / pest or weed control at 125 g/ha / pest or weed control at 250 g/ha: read-out: Plant response rating, Bermudagrass; for pest or weed control at 125 g/ha: 125 g ai/ha, scale 0 (no effect) to 100 (complete control), visual, 12 to 14 days; for pest or weed control at 250 g/ha: 250 g ai/ha, scale 0-100; for pest or weed control at 500 g/ha: Preemergence, 500 g ai/ha, read-out: Bermudagrass plant response rating
Procedure, shortened: as §1

barnyardgrass [2] = assay: Test A pre-/postemergence herbicide test; type: in vivo, Echinochloa crus-galli; settings: Echinochloa crus-galli, 240 h; for pest or weed control at 500 g/ha: 500 g ai/ha; for pest or weed control at 2000 g/ha: 2000 g ai/ha
Procedure, shortened: as §2

redroot pigweed = assay: Test A pre-/postemergence herbicide test; type: in vivo, Amaranthus retroflexus; settings: Amaranthus retroflexus, 240 h; for pest or weed control at 500 g/ha: 500 g ai/ha; for pest or weed control at 2000 g/ha: 2000 g ai/ha
Procedure, shortened: as §2

[3] = post-emergence, Postemergence, 0 to 100 scale, 0 no effect, 100 complete control, read-out: Foxtail, Giant plant response rating
[4] = post-emergence, Postemergence, 0 to 100 scale, 0 no effect, 100 complete control, read-out: Plant response rating, Foxtail, Giant
[5] = pre-emergence, Preemergence, visual rating, 0 to 100 scale (0 no effect, 100 complete control), read-out: Foxtail, Giant plant response rating
[6] = pre-emergence, preemergence, visual injury, 0 to 100 scale (0 no effect, 100 complete control), read-out: Foxtail, Giant plant response rating
[7] = post-emergence, Postemergence, 0 to 100 scale, 0 no effect, 100 complete control, read-out: Crabgrass, Large plant response rating
[8] = post-emergence, Postemergence, 0 to 100 scale, 0 no effect, 100 complete control, read-out: Plant response rating, Crabgrass, Large
[9] = pre-emergence, Preemergence, visual rating, 0 to 100 scale (0 no effect, 100 complete control), read-out: Crabgrass, Large plant response rating
[10] = pre-emergence, preemergence, visual injury, 0 to 100 scale (0 no effect, 100 complete control), read-out: Crabgrass, Large plant response rating
[11] = post-emergence, Postemergence, 0 to 100 scale, 0 no effect, 100 complete control, read-out: Barnyardgrass plant response rating
[12] = post-emergence, Postemergence, 0 to 100 scale, 0 no effect, 100 complete control, read-out: Plant response rating, Barnyardgrass
[13] = pre-emergence, Preemergence, visual rating, 0 to 100 scale (0 no effect, 100 complete control), read-out: Barnyardgrass plant response rating
[14] = pre-emergence, preemergence, visual injury, 0 to 100 scale (0 no effect, 100 complete control), read-out: Barnyardgrass plant response rating
[15] = post-emergence, Postemergence, 0 to 100 scale, 0 no effect, 100 complete control, read-out: Pigweed plant response rating
[16] = post-emergence, Postemergence, 0 to 100 scale, 0 no effect, 100 complete control, read-out: Plant response rating, Pigweed
[17] = pre-emergence, Preemergence, visual rating, 0 to 100 scale (0 no effect, 100 complete control), read-out: Pigweed plant response rating
[18] = pre-emergence, preemergence, visual injury, 0 to 100 scale (0 no effect, 100 complete control), read-out: Pigweed plant response rating

Compound	pest or weed control at 62 g/ha (woolly cupgrass)	pest or weed control at 125 g/ha (woolly cupgrass)	pest or weed control at 250 g/ha (woolly cupgrass)	pest or weed control at 500 g/ha (woolly cupgrass)	pest or weed control at 62 g/ha (morningglory)	pest or weed control at 125 g/ha (morningglory)	pest or weed control at 250 g/ha (morningglory)	pest or weed control at 500 g/ha (morningglory)	pest or weed control at 62 g/ha (barnyardgrass [1])	pest or weed control at 125 g/ha (barnyardgrass [1])	pest or weed control at 250 g/ha (barnyardgrass [1])	pest or weed control at 500 g/ha (barnyardgrass [1])	pest or weed control at 62 g/ha (Surinam grass)	pest or weed control at 250 g/ha (Surinam grass)	pest or weed control at 500 g/ha (Surinam grass)	pest or weed control at 500 g/ha (giant foxtail; [3])	pest or weed control at 2000 g/ha (giant foxtail; [4])	pest or weed control at 2000 g/ha (giant foxtail; [5])	pest or weed control at 500 g/ha (giant foxtail; [6])	pest or weed control at 62 g/ha (johnsongrass)	further results
CCc1nn(C(C)(C)C)cc1C(=O)Nc1cc(C(=O)N(C)C)ccc1F [Compound 222, N-[5-[(dimethylamino)carbonyl]-2-fluorophenyl]-1-(1,1-dimethylethyl)-3-ethyl-1H-pyrazole-4-carboxamide]	20%	100%	100%	100%	0%	20%	30%	100%	15%	75%	90%	95%	80%	100%	100%	65%	85%	100%	95%	85%	pest or weed control at 125 g/ha (johnsongrass): 100%; pest or weed control at 250 g/ha (johnsongrass): 100%; pest or weed control at 500 g/ha (johnsongrass): 100%; pest or weed control at 500 g/ha (large crabgrass; [7]): 80%; pest or weed control at 2000 g/ha (large crabgrass; [8]): 85%; pest or weed control at 2000 g/ha (large crabgrass; [9]): 95%; pest or weed control at 500 g/ha (large crabgrass; [10]): 100%; pest or weed control at 62 g/ha (bermudagrass): 85%; pest or weed control at 125 g/ha (bermudagrass): 100%; pest or weed control at 250 g/ha (bermudagrass): 100%; pest or weed control at 500 g/ha (bermudagrass): 100%; pest or weed control at 500 g/ha (barnyardgrass [2]; [11]): 75%; pest or weed control at 2000 g/ha (barnyardgrass [2]; [12]): 90%; pest or weed control at 2000 g/ha (barnyardgrass [2]; [13]): 100%; pest or weed control at 500 g/ha (barnyardgrass [2]; [14]): 95%; pest or weed control at 500 g/ha (redroot pigweed; [15]): 75%; pest or weed control at 2000 g/ha (redroot pigweed; [16]): 100%; pest or weed control at 2000 g/ha (redroot pigweed; [17]): 90%; pest or weed control at 500 g/ha (redroot pigweed; [18]): 90%
CCN1N=C(C(C)(C)C)CC1C(=O)Nc1cc(C(=O)N(C)C)ccc1F (stereo not drawn) [Compound 268, N-[5-[(dimethylamino)carbonyl]-2-fluorophenyl]-3-(1,1-dimethylethyl)-1-ethyl-4,5-dihydro-1H-pyrazole-5-carboxamide]	50%	70%	95%	95%	0%	0%	5%	5%	65%	90%	95%	95%	70%	95%	100%	55%	80%	100%	100%	70%	pest or weed control at 125 g/ha (johnsongrass): 90%; pest or weed control at 250 g/ha (johnsongrass): 100%; pest or weed control at 500 g/ha (johnsongrass): 100%; pest or weed control at 500 g/ha (large crabgrass; [7]): 50%; pest or weed control at 2000 g/ha (large crabgrass; [8]): 75%; pest or weed control at 2000 g/ha (large crabgrass; [9]): 100%; pest or weed control at 500 g/ha (large crabgrass; [10]): 85%; pest or weed control at 62 g/ha (bermudagrass): 100%; pest or weed control at 125 g/ha (bermudagrass): 100%; pest or weed control at 250 g/ha (bermudagrass): 100%; pest or weed control at 500 g/ha (bermudagrass): 100%; pest or weed control at 500 g/ha (barnyardgrass [2]; [11]): 80%; pest or weed control at 2000 g/ha (barnyardgrass [2]; [12]): 80%; pest or weed control at 2000 g/ha (barnyardgrass [2]; [13]): 100%; pest or weed control at 500 g/ha (barnyardgrass [2]; [14]): 100%; pest or weed control at 500 g/ha (redroot pigweed; [15]): 35%; pest or weed control at 2000 g/ha (redroot pigweed; [16]): 85%; pest or weed control at 2000 g/ha (redroot pigweed; [17]): 100%; pest or weed control at 500 g/ha (redroot pigweed; [18]): 100%
